Consider two compounds from US5688767A, “Treatment of endotoxin-associated disorders with cationic peptides” (priority 1996, dated 1997).

In one test the target is P. aeruginosa H103 LPS. The test can be described thus: Dansyl polymyxin (DPx) displacement from purified LPS. It counts as binding, Pseudomonas aeruginosa. The settings on record: 2.5 μM DPx, 3 μg/ml LPS, 5 mM HEPES pH 7.2, average of at least three trials; for IC50: read-out: I50, Value in μM. Here is the method: In this assay, DPx was incubated with LPS to saturate the binding sites and then, while polycationic compounds are titrated into the reaction, displacement of the DPx was monitored by the decrease in fluorescence (FIG. 9). P. aeruginosa LPS was isolated as previously described (Darveau, et al., J of Bacteriology, 155:831, 1983) Dansyl polymyxin was synthesized as described by Schindler, et al., B. Antimicrobial Agents and Chemo, 8:95, 1975.
The method of Moore, et al., (Antimicrobial Agents and Chemo., 29:496, 1987), was used to test how much DPx was needed to saturate the binding sties on LPS. Briefly, 5 μl samples of 100 μM DPx were titrated sequentially into 1 ml of 3 μg/ml of LPS until a maximum fluorescence was reached. The fluorescence was measured in a Perkin-Elmer 650-10S fluorescence spectrophotometer with an excitation wavelength of 340 nm and an emission wavelength of 485 nm using slit widths of 5 nm. […] For the binding inhibition assays (Moore, et al., Antimicrobial Agents and Chemo., 29:496, 1987), 2.5 μM DPx was added to 3 μg/ml of H103 LPS in 5 mM HEPES pH 7.2. The test compounds were added 5 μl at a time and the decrease in fluorescence due to displacement of the DPx from the LPS was recorded.
When the data was plotted as a double reciprocal plot (FIG. 10), the X-intercept provided a value that is equal to -1/I50.

The next test concerns LPS-induced endotoxemia. The test can be described thus: Protection from lethal LPS endotoxicity in galactosamine-sensitized mouse endotoxic shock model. The test is classed as in vivo, mice. The settings on record: for % Mortality / dead/total: LPS 10 ug. The protocol:
The ability of CEME and CEMA to protect against LPS-induced endotoxemia was assessed in vivo. Mice (8-10 weeks old) were injected intraperitoneally with […] D-galactosamine (Dgal) to sensitize them to LPS according to the mode of Galanos (Galanos, et al., Proc. Natl. Acad. Sci., USA, 76:5939-5943, 1979), followed by 0, 50, 100, or 200 μg CEME or CEMA in 100 μl. Immediately afterwards LPS (10 or 20 μg) in 100 μl was injected.
Mice are naturally resistant to LPS. […] Endotoxic shock was induced by intraperitoneal injection of 10 or 20 μg of E. coli 0111:B4 LPS in phosphate-buffered saline (PBS), pH 7.2 into galactosamine-sensitized 8-10 week old female CD-1 mice (Galanos, C., supra; Freudenberg, M. A., Inf. Immun., 51:891, 1986). In experiments involving peptides, 50-200 μg in 100 μl sterile water injected at separate intraperitoneal sites immediately before or after LPS injection. In survival experiments, survival was monitored at 24 to 48 hours post injection. In experiments measuring TNF, blood was withdrawn by cardiac puncture at timed intervals up to 8 hours after the injections and allowed to clot prior to measurement of TNF in the serum.
In contrast when CEMA was injected at around the same time as LPS, but at separate site in the peritoneum, it protected mice in a dose dependant fashion (FIG. 17). Endotoxemia was induced with 10 μg of E. coli 0111:B4 LPS injected into the peritoneum. Subsequently 50, 100, or 200 μg (2.2, 4.4, and 8.7 mg/kg) of CEME or CEMA was injected into a separate site in the peritoneum. […] mice were assessed for each experimental point. Mortality was observed after 24 hrs.

Test [1] deals with P. aeruginosa H309 or E. cloacae 218R1. The test can be described thus: Lysozyme lysis assay (outer membrane permeabilization). It counts as cell-based, Pseudomonas aeruginosa; Enterobacter cloacae. The settings on record: 50 μg/ml lysozyme, varying concentrations of compound. The protocol: Membrane permeabilization by polycationic compounds was measured in two different assays. The first assay measured membrane disruption by the ability of lysozyme to reach the periplasm and cause cell lysis. […] The uptake of lysozyme into whole cells due to membrane permeabilization by various compounds was previously described in Hancock, et al., Antimicrobial Agents and Chemo., 19:777, 1981. Overnight cultures of P. aeruginosa H309 or E. cloacae 218R1 grown in LB-S were diluted 1 in 50 in fresh medium and grown to an OD600 =0.5-0.6. The cells were harvested in a Silencer H-103N clinical centrifuge at 1800 g for 10 min, washed once with one volume of assay buffer (5 mM HEPES pH 7.2, 5 mM KCN), and resuspended in the same buffer to an OD600 of 0.5. Assays consisted of 600 μl of cells with 50 μg/ml of chicken egg white lysozyme and varying concentrations of cationic compounds. Cell lysis was measured as a decrease in the OD600 in a Perkin-Elmer dual beam spectrophotometer. Parallel experiments performed without lysozyme enabled the measurement of the lytic activity of the compounds themselves. To test whether or not permeability to lysozyme could be inhibited by divalent cations, various concentrations of MgCl2 were added to the assay after the addition of lysozyme and before the addition of the test compound.

With `CC[C@H](C)[C@H](NC(=O)CNC(=O)[C@@H](NC(=O)[C@H](CCCCN)NC(=O)[C@H](CCCCN)NC(=O)[C@H](Cc1ccccc1)NC(=O)[C@H](CC(C)C)NC(=O)[C@H](CCCCN)NC(=O)[C@H](Cc1c[nH]c2ccccc12)NC(=O)[C@@H](N)CCCCN)[C@@H](C)CC)C(=O)NCC(=O)N[C@@H](C)C(=O)N[C@H](C(=O)N[C@@H](CC(C)C)C(=O)N[C@@H](CCCCN)C(=O)N[C@H](C(=O)N[C@@H](CC(C)C)C(=O)N[C@H](C(=O)N[C@H](C(=O)NCC(=O)N[C@@H](CC(C)C)C(=O)N1CCC[C@H]1C(=O)N[C@@H](C)C(=O)N[C@@H](CC(C)C)C(=O)N[C@@H](CCCCN)C(=O)N[C@@H](CC(C)C)C(=O)N[C@H](C(=O)N[C@@H](CCCCN)C(=O)O)[C@@H](C)O)[C@@H](C)O)[C@@H](C)O)C(C)C)C(C)C` [CEMA], the “I50, Value in μg/ml” value on P. aeruginosa H103 LPS is 4.12 ± 0.36 µg/mL. Further, on P. aeruginosa H103 LPS, the IC50 is 1.32 ± 0.117 µM. Moreover, the survival with LPS-induced endotoxemia (10 μg E. coli 0111:B4 LPS, peptide 50 μg) turned out to be 60%; with LPS-induced endotoxemia (10 μg E. coli 0111:B4 LPS, peptide 100 μg), 75%. The “survival / mice protected” value in the test with LPS-induced endotoxemia (10 μg E. coli 0111:B4 LPS, peptide 200 μg (8.7 mg/kg)) was determined as 78%. The results for the “% Mortality” value in the test with LPS-induced endotoxemia (peptide 50 ug), in the test with LPS-induced endotoxemia (peptide 100 ug) and in the test on LPS-induced endotoxemia (peptide 200 ug) were 40%, 25% and 22%, respectively. Moreover, the dead/total with LPS-induced endotoxemia (peptide 50 ug) is on record as 2/5; in the test with LPS-induced endotoxemia (peptide 100 ug) it was 2/8; in the test with LPS-induced endotoxemia (peptide 200 ug), 2/9. In addition, in test [1], the “permeabilization of outer membrane to lysozyme” value is given as “stronger permeabilizer for lysozyme than polymyxin B”.
On to polymyxin B, for which, on P. aeruginosa H103 LPS, the “I50, Value in μg/ml” value worked out at 2.97 ± 0.07 µg/mL and the IC50 came out at 1.51 ± 0.04 µM.
